# Experimental data as given in patent US11332485B2, “Penicillin-binding protein inhibitors” (priority 2017, dated 2022).
# Experiments:
# [1] = test system: S. aureus ATCC 29213; test: Broth microdilution MIC assay; type: cell-based; conditions: Staphylococcus aureus, ATCC29213; broth microdilution, 16-20 hours at 37° C.; read-out: S. aureus 29213 MIC
# Procedure: (§1) To determine the ability of test compounds to potentiate the inhibition of the growth of bacterial strains, classic cell based broth microdilution MIC assays were employed. MIC assays are performed according to CLSI methods except where otherwise noted (CLSI, 2011 and CLSI, 2009). The reference strain S. aureus ATCC 29213 and the hyper-permeable E. coli 901C were used to determine the ability of the PBP compounds to inhibit bacterial growth. Briefly, cryo-preserved bacterial cultures of clinical strains are streaked for isolation on appropriate agar medium, in this case Mueller Hinton II agar. Following incubation to allow formation of colonies these plates are sealed with parafilm and stored refrigerated for up to two weeks. For preparation of assay inocula and to ensure low variability, at least 5 colonies are picked from the agar plates with an inoculating loop and aseptically transferred to a culture tube containing 3 mL of Mueller-Hinton Broth (supplemented with divalent cations to required levels based on Manufacturers' certification). The broth culture is grown for 3-5 hours at 37° C. with shaking at 200 rpm. Meanwhile, 2-fold serial dilutions of test compounds are conducted in a 96 well plate with a final volume of 75 μL per well at 2-fold the final desired concentration. After the dilution plates are set up the growing cultures are then diluted in a cuvette containing MH II broth and the optical density is measured at 600 nm. Inocula are diluted such that 75 μL of this culture in Mueller-Hinton Broth results in a starting bacterial concentration of 5×10^5 CFU/mL when added to the dilution plates. The plates are incubated 16-20 hours at 37° C. The MIC is read visually as the lowest concentration well with no bacterial growth.
# [2] = test system: hyper-permeable E. coli 901C; test: Broth microdilution MIC assay; type: cell-based; conditions: Escherichia coli, read-out: E. coli 901C MIC
# Procedure: as §1
# [3] = test system: E. coli DH5α/pLBII; test: Broth microdilution MIC assay, empty vector control strain; type: cell-based; conditions: Escherichia coli, read-out: E. coli DH5α/pLBII Microbiological Activity (MIC)
# Procedure: as §1
# (§2) To determine if test compounds were affected by CTX-M15, the most abundant extended spectrum β-lactamase in clinical settings worldwide, the inhibition of the growth of an engineered strain of Escherichia coli harboring CTX-M15 was tested. This strain was constructed by cloning the gene encoding CTX-M15 into the NdeI and BamHI restriction endonuclease sites of plasmid pLBII, placing the gene(s) under the control of the Lac promoter. The constructed expression plasmid for CTX-M15 was used to transform competent E. coli DH5a cells to make the engineered strain, including an empty pLBII vector control strain. The classic cell based broth microdilution MIC assay was employed as described above with the addition of control antibiotics, known to be degraded by β-lactamases (Ceftazidime, piperacillin and piperacillin+tazobactam).
# [4] = test system: E. coli DH5α/pLBII-CTX-M15; test: Broth microdilution MIC assay, engineered strain producing CTX-M15; type: cell-based, Escherichia coli; conditions: for MIC: Escherichia coli, read-out: E. coli DH5α/pLBII-CTX-M15 Microbiological Activity (MIC); for MIC in the CTX-M15 producer compared with the parent strain with the empty pLBII plasmid: comparison in words
# Procedure: as §1, §2
SMILES,MIC [1] [µg/mL],MIC [2] [µg/mL],MIC [3] [µg/mL],MIC [4] [µg/mL],MIC in the CTX-M15 producer compared with the parent strain with the empty pLBII plasmid [4]
"CCN1CCN(C(=O)N[C@@H](C(=O)N[C@H]2Cc3cccc(C(=O)O)c3OB2O)C(O)c2ccccc2)C(=O)C1=O (single isomer, unassigned) [Example 80]",64 to 128,< 64,,,
"CCN1CCN(C(=O)N[C@H](C(=O)N[C@H]2Cc3cccc(C(=O)O)c3OB2O)C(O)c2ccccc2)C(=O)C1=O (single isomer, unassigned) [Example 81]",> 128,> 128,,,
"CCC(O)[C@H](NC(=O)N1CCN(CC)C(=O)C1=O)C(=O)N[C@H]1Cc2cccc(C(=O)O)c2OB1O (single isomer, unassigned) [Example 83]",> 128,64 to 128,128 to 256,128 to 256,
"N[C@H](Cc1ccccc1)C(=O)N[C@H]1Cc2cccc(C(=O)O)c2OB1O [Example 1, (R)-3-((R)-2-amino-3-phenylpropanamido)-2-hydroxy-3,4-dihydro-2H-benzo[e][1,2]oxaborinine-8-carboxylic acid]",> 128,> 128,> 512,> 512,
"N[C@@H](C(=O)N[C@H]1Cc2cccc(C(=O)O)c2OB1O)c1ccccc1 [Example 2, (R)-3-((R)-2-amino-2-phenylacetamido)-2-hydroxy-3,4-dihydro-2H-benzo[e][1,2]oxaborinine-8-carboxylic acid]",> 128,> 128,> 512,> 512,
"COc1ccc([C@@H](N)C(=O)N[C@H]2Cc3cccc(C(=O)O)c3OB2O)cc1 [Example 4, (R)-3-((R)-2-amino-2-(4-methoxyphenyl)acetamido)-2-hydroxy-3,4-dihydro-2H-benzo[e][1,2]oxaborinine-8-carboxylic acid]",> 128,> 128,> 512,> 512,
"COc1ccc([C@H](N)C(=O)N[C@H]2Cc3cccc(C(=O)O)c3OB2O)cc1 [Example 5, (R)-3-((S)-2-amino-2-(4-methoxyphenyl)acetamido)-2-hydroxy-3,4-dihydro-2H-benzo[e][1,2]oxaborinine-8-carboxylic acid]",64 to 128,> 128,> 512,> 512,
"N[C@@H](C(=O)N[C@H]1Cc2cccc(C(=O)O)c2OB1O)c1ccc(O)cc1 [Example 6, (R)-3-((R)-2-amino-2-(4-hydroxyphenyl)acetamido)-2-hydroxy-3,4-dihydro-2H-benzo[e][1,2]oxaborinine-8-carboxylic acid]",> 128,> 128,> 512,> 512,
"Nc1nc(C(NCC(=O)O)C(=O)N[C@H]2Cc3cccc(C(=O)O)c3OB2O)cs1 (stereo partly drawn) [Example 10, (3R)-3-(2-(2-aminothiazol-4-yl)-2-((carboxymethyl)amino)acetamido)-2-hydroxy-3,4-dihydro-2H-benzo[e][1,2]oxaborinine-8-carboxylic acid]",> 128,,,,
"CS(=O)(=O)N1CCC(C(=O)NC(C(=O)N[C@H]2Cc3cccc(C(=O)O)c3OB2O)c2csc(N)n2)CC1 (stereo partly drawn) [Example 70, (3R)-3-(2-(2-aminothiazol-4-yl)-2-(1-(methylsulfonyl)piperidine-4-carboxamido)acetamido)-2-hydroxy-3,4-dihydro-2H-benzo[e][1,2]oxaborinine-8-carboxylic acid]",> 128,< 64,,,
"CC(=O)N1CCN(C(=O)NC(C(=O)N[C@H]2Cc3cccc(C(=O)O)c3OB2O)c2csc(N)n2)C1=O (stereo partly drawn) [Example 71, (3R)-3-(2-(3-acetyl-2-oxoimidazolidine-1-carboxamido)-2-(2-aminothiazol-4-yl)acetamido)-2-hydroxy-3,4-dihydro-2H-benzo[e][1,2]oxaborinine-8-carboxylic acid]",64 to 128,< 64,,,
"NCC1CCN(C(=O)NC(C(=O)N[C@H]2Cc3cccc(C(=O)O)c3OB2O)c2csc(N)n2)CC1 (stereo partly drawn) [Example 75, (3R)-3-(2-(4-(aminomethyl)piperidine-1-carboxamido)-2-(2-aminothiazol-4-yl)acetamido)-2-hydroxy-3,4-dihydro-2H-benzo[e][1,2]oxaborinine-8-carboxylic acid]",> 128,< 64,,,
"NCC1CCCN(C(=O)NC(C(=O)N[C@H]2Cc3cccc(C(=O)O)c3OB2O)c2csc(N)n2)C1 (stereo partly drawn) [Example 76, (3R)-3-(2-(3-(aminomethyl)piperidine-1-carboxamido)-2-(2-aminothiazol-4-yl)acetamido)-2-hydroxy-3,4-dihydro-2H-benzo[e][1,2]oxaborinine-8-carboxylic acid]",> 128,64 to 128,,,
"CCN1CCN(C(=O)NC(C(=O)N[C@H]2Cc3cccc(C(=O)O)c3OB2O)C(C)c2ccccc2)C(=O)C1=O (stereo partly drawn) [Example 84, (3R)-3-(2-(4-ethyl-2,3-dioxopiperazine-1-carboxamido)-3-phenylbutanamido)-2-hydroxy-3,4-dihydro-2H-benzo[e][1,2]oxaborinine-8-carboxylic acid]",64 to 128,< 64,,128 to 256,
"Nc1nc(C(NC(=O)NCCC(=O)O)C(=O)N[C@H]2Cc3cccc(C(=O)O)c3OB2O)cs1 (stereo partly drawn) [Example 87, (3R)-3-(2-(2-aminothiazol-4-yl)-2-(3-(2-carboxyethyl)ureido)acetamido)-2-hydroxy-3,4-dihydro-2H-benzo[e][1,2]oxaborinine-8-carboxylic acid]",> 128,64 to 128,,128 to 256,
"COC(=O)CCNC(=O)NC(C(=O)N[C@H]1Cc2cccc(C(=O)O)c2OB1O)c1csc(N)n1 (stereo partly drawn) [Example 88, (3R)-3-(2-(2-aminothiazol-4-yl)-2-(3-(3-methoxy-3-oxopropyl)ureido)acetamido)-2-hydroxy-3,4-dihydro-2H-benzo[e][1,2]oxaborinine-8-carboxylic acid]",> 128,< 64,,128 to 256,
"Nc1nc(C(NC(=O)CCB(O)O)C(=O)N[C@H]2Cc3cccc(C(=O)O)c3OB2O)cs1 (stereo partly drawn) [Example 89, (3R)-3-(2-(2-aminothiazol-4-yl)-2-(3-boronopropanamido)acetamido)-2-hydroxy-3,4-dihydro-2H-benzo[e][1,2]oxaborinine-8-carboxylic acid]",> 128,> 128,,128 to 256,
"Nc1nc(C(NC(=O)NCC(=O)O)C(=O)N[C@H]2Cc3cccc(C(=O)O)c3OB2O)cs1 (stereo partly drawn) [Example 90, (3R)-3-(2-(2-aminothiazol-4-yl)-2-(3-(carboxymethyl)ureido)acetamido)-2-hydroxy-3,4-dihydro-2H-benzo[e][1,2]oxaborinine-8-carboxylic acid]",> 128,< 64,,128 to 256,
"CC(C)(O/N=C(\C(=O)N[C@@H]1C(=O)N2C(C(=O)[O-])=C(C[n+]3ccccc3)CS[C@H]12)c1csc(N)n1)C(=O)O [ceftazidime, reference compound]",,,< 1,8 to 16,weaker MICs
"CCN1CCN(C(=O)N[C@@H](C(=O)N[C@@H]2C(=O)N3[C@@H]2SC(C)(C)[C@@H]3C(=O)O)c2ccccc2)C(=O)C1=O [piperacillin, reference compound]",,,< 1,128 to 256,weaker MICs
